This assay concerns the target T1, human full-length recombinant PKC βII (Homo sapiens, UniProt P05771).
T1 construct: Active human full-length recombinant PKC βII; purchased Invitrogen GmbH, Darmstadt, Germany
The assay is described as follows: Determination of PKC βII inhibition (Caliper mobility shift kinase assay). Format: biochemical. Conditions: final compound concentration 1.14 μM (±0.15 μM); 60 min incubation at 32° C. An outline of the steps: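 Compound was tested at a final 1.14 µM (±0.15 µM), with % inhibition derived from the product/(substrate+product) peak ratio on a Caliper mobility-shift read-out. Full-length PKC βII was activated by CaCl2, PS and DAG in pH 7.4 Hepes/MgCl2. Peptide and ATP were at 3 µM and 120 µM in the added mix. Incubation was 60 min at 32 °C.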
T1 sequence (P05771 1-673 isoform P05771-2): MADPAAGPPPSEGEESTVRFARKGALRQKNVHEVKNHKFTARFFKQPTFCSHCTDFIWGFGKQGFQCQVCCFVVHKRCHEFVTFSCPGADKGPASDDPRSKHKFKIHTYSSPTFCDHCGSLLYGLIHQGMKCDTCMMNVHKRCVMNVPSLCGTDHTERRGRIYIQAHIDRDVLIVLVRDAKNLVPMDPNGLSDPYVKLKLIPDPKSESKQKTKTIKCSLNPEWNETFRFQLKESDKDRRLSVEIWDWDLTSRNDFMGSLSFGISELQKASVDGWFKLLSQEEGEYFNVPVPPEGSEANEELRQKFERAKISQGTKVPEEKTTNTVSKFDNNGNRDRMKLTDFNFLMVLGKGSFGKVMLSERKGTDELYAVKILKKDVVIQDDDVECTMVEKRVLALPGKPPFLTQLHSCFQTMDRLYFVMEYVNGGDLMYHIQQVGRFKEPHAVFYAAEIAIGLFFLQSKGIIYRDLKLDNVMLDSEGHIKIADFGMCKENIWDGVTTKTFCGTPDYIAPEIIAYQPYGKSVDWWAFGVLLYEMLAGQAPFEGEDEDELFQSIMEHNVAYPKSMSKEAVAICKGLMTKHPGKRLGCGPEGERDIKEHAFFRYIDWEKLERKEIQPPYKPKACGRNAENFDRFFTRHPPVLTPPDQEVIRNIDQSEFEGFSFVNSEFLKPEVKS
On to `Cc1n[nH]c2nc(-c3ccc(O)cc3)cc(CN3CCN[C@H](CC(F)(F)F)C3)c12` [Example 91, 4-{3-Methyl-4-[(R)-3-(2,2,2-trifluoro-ethyl)-piperazin-1-ylmethyl]-1H-pyrazolo[3,4-b]pyridin-6-yl}-phenol], for which the inhibition at 1.14 µM was determined as 81%.
As to `Cc1n[nH]c2nc(-c3ccc(O)cc3)cc(CN3CCNC[C@H]3CC(F)(F)F)c12` [Example 92, 4-{3-Methyl-4-[(R)-2-(2,2,2-trifluoro-ethyl)-piperazin-1-ylmethyl]-1H-pyrazolo[3,4-b]pyridin-6-yl}-phenol], the inhibition at 1.14 µM was 99%.
Consider `CNC1CCN(Cc2cc(-c3ccc(O)cc3)nc3[nH]nc(C)c23)C1` (centres unmarked) [Example 93, 4-[3-Methyl-4-(3-methylamino-pyrrolidin-1-ylmethyl)-1H-pyrazolo[3,4-b]pyridin-6-yl]-phenol], for which the inhibition at 1.14 µM came out at 81%.
On the same count and under the same terms, the same measure for `Cc1n[nH]c2nc(-c3ccc(O)cc3)cc(CN(C)C3CCNC3)c12` (centres unmarked) [Example 94, 4-{3-Methyl-4-[(methyl-pyrrolidin-3-yl-amino)-methyl]-1H-pyrazolo[3,4-b]pyridin-6-yl}-phenol]: 92%; for `Oc1ccc(-c2cc(CN3CCNCC3)c3c(C4CC4)n[nH]c3n2)cc1` [Example 95, 4-(3-Cyclopropyl-4-piperazin-1-ylmethyl-1H-pyrazolo[3,4-b]pyridin-6-yl)-phenol]: 53%; for `CCc1n[nH]c2nc(-c3ccc(O)cc3)cc(CN3CCNCC3)c12` [Example 96, 4-(3-Ethyl-4-piperazin-1-ylmethyl-1H-pyrazolo[3,4-b]pyridin-6-yl)-phenol]: 74%.
The same measure, in the same setting: the same measure for `Cc1n[nH]c2nc(-c3ccc(O)cc3F)cc(C(C)N3CCNCC3)c12` (centres unmarked) [Example 97, 3-Fluoro-4-[3-methyl-4-(1-piperazin-1-yl-ethyl)-1H-pyrazolo[3,4-b]pyridin-6-yl]-phenol]: 96%; for `Cc1n[nH]c2nc(-c3ccc(O)cc3F)cc(C(C)N3C[C@@H](C)N[C@@H](C)C3)c12` (stereo partly drawn) [Example 98, 4-{4-[1-((3S,5R)-3,5-Dimethyl-piperazin-1-yl)-ethyl]-3-methyl-1H-pyrazolo[3,4-b]pyridin-6-yl}-3-fluoro-phenol]: 87%.
Still for that read-out and setting: in the case of `Cc1n[nH]c2nc(-c3ccc(O)cc3F)cc(CN3C[C@@H](c4ccccc4)NC[C@@H]3C)c12` [Example 99, 3-Fluoro-4-[3-methyl-4-((2S,5R)-2-methyl-5-phenyl-piperazin-1-ylmethyl)-1H-pyrazolo[3,4-b]pyridin-6-yl]-phenol] it was 92%.
For `Cc1n[nH]c2nc(-c3ccc(O)cc3F)cc(CN3C[C@H](c4ccccc4)NC[C@H]3C)c12` [Example 100, 3-Fluoro-4-[3-methyl-4-((2R,5S)-2-methyl-5-phenyl-piperazin-1-ylmethyl)-1H-pyrazolo[3,4-b]pyridin-6-yl]-phenol], the inhibition at 1.14 µM worked out at 86%.
As for `Cc1n[nH]c2nc(-c3ccc(O)cc3F)cc(CN3CCNC[C@@H]3c3ccc(C(C)C)cc3)c12` [Example 101, 3-Fluoro-4-{4-[(S)-2-(4-isopropyl-phenyl)-piperazin-1-ylmethyl]-3-methyl-1H-pyrazolo[3,4-b]pyridin-6-yl}-phenol], the inhibition at 1.14 µM was 52%.
On to `Cc1n[nH]c2nc(-c3ccc(O)cc3F)cc(CN3CCNC[C@H]3c3ccc(C(C)C)cc3)c12` [Example 102, 3-Fluoro-4-{4-[(R)-2-(4-isopropyl-phenyl)-piperazin-1-ylmethyl]-3-methyl-1H-pyrazolo[3,4-b]pyridin-6-yl}-phenol], for which the inhibition at 1.14 µM came out at 85%.
The same measure, in the same setting: in the case of `Cc1n[nH]c2nc(-c3ccc(O)cc3F)cc(CN3CCNC[C@@H]3c3ccc(C(F)(F)F)cc3)c12` [Example 103, 3-Fluoro-4-{3-methyl-4-[(S)-2-(4-trifluoromethyl-phenyl)-piperazin-1-ylmethyl]-1H-pyrazolo[3,4-b]pyridin-6-yl}-phenol] it was 53%; in that of `Cc1n[nH]c2nc(-c3ccc(O)cc3F)cc(CN3CCNC[C@H]3c3ccc(C(F)(F)F)cc3)c12` [Example 104, 3-Fluoro-4-{3-methyl-4-[(R)-2-(4-trifluoromethyl-phenyl)-piperazin-1-ylmethyl]-1H-pyrazolo[3,4-b]pyridin-6-yl}-phenol], 83%; in that of `Cc1n[nH]c2nc(-c3ccc(O)cc3F)cc(CN3CCNC[C@@H]3c3ccc(F)cc3)c12` [Example 105, 3-Fluoro-4-{4-[(S)-2-(4-fluoro-phenyl)-piperazin-1-ylmethyl]-3-methyl-1H-pyrazolo[3,4-b]pyridin-6-yl}-phenol], 100%.
Still for that read-out and setting: the same measure for `Cc1n[nH]c2nc(-c3ccc(O)cc3F)cc(CN3CCNC[C@H]3c3ccc(F)cc3)c12` [Example 106, 3-Fluoro-4-{4-[(R)-2-(4-fluoro-phenyl)-piperazin-1-ylmethyl]-3-methyl-1H-pyrazolo[3,4-b]pyridin-6-yl}-phenol]: 104%.
As for `Cc1n[nH]c2nc(-c3ccc(O)cc3F)cc(CN3CCNC[C@@H]3C(F)(F)F)c12` [Example 107, 3-Fluoro-4-[3-methyl-4-((R)-2-trifluoromethyl-piperazin-1-ylmethyl)-1H-pyrazolo[3,4-b]pyridin-6-yl]-phenol], the inhibition at 1.14 µM worked out at 101%.
The same measure, in the same setting: in the case of `Cc1n[nH]c2nc(-c3ccc(O)cc3F)cc(CN3CCNC[C@H]3C(F)(F)F)c12` [Example 108, 3-Fluoro-4-[3-methyl-4-((S)-2-trifluoromethyl-piperazin-1-ylmethyl)-1H-pyrazolo[3,4-b]pyridin-6-yl]-phenol] it was 102%; in that of `Cc1n[nH]c2nc(-c3ccc(O)cc3F)cc(CN3CCNC[C@@H]3c3ccccc3)c12` [Example 109, 3-Fluoro-4-[3-methyl-4-((S)-2-phenyl-piperazin-1-ylmethyl)-1H-pyrazolo[3,4-b]pyridin-6-yl]-phenol], 91%; in that of `Cc1n[nH]c2nc(-c3ccc(O)cc3F)cc(CN3CCNC[C@H]3c3ccccc3)c12` [Example 110, 3-Fluoro-4-[3-methyl-4-((R)-2-phenyl-piperazin-1-ylmethyl)-1H-pyrazolo[3,4-b]pyridin-6-yl]-phenol], 42%.
For the molecule `Cc1n[nH]c2nc(-c3ccc(O)cc3)cc(CN3C[C@@H](C)NC[C@@H]3c3ccccc3)c12` [Example 111, 4-[3-Methyl-4-((2S,5R)-5-methyl-2-phenyl-piperazin-1-ylmethyl)-1H-pyrazolo[3,4-b]pyridin-6-yl]-phenol], the “% Inhibition” value came out at 88%.
On to `Cc1n[nH]c2nc(-c3ccc(O)cc3)cc(CN3C[C@H](C)NC[C@H]3c3ccccc3)c12` [Example 112, 4-[3-Methyl-4-((2R,5S)-5-methyl-2-phenyl-piperazin-1-ylmethyl)-1H-pyrazolo[3,4-b]pyridin-6-yl]-phenol], for which the inhibition at 1.14 µM was determined as 85%.
Same read-out and setting: in the case of `Cc1n[nH]c2nc(-c3ccc(O)cc3)cc(CN3CCNC[C@@H]3c3ccc(C(F)(F)F)cc3)c12` [Example 113, 4-{3-Methyl-4-[(S)-2-(4-trifluoromethyl-phenyl)-piperazin-1-ylmethyl]-1H-pyrazolo[3,4-b]pyridin-6-yl}-phenol] it was 81%; in that of `Cc1n[nH]c2nc(-c3ccc(O)cc3)cc(CN3CCNC[C@H]3c3ccc(C(F)(F)F)cc3)c12` [Example 114, 4-{3-Methyl-4-[(R)-2-(4-trifluoromethyl-phenyl)-piperazin-1-ylmethyl]-1H-pyrazolo[3,4-b]pyridin-6-yl}-phenol], 57%; in that of `Cc1n[nH]c2nc(-c3ccc(O)cc3F)cc(CN3C[C@H](C)NCC3(C)C)c12` [Example 115, 3-Fluoro-4-[3-methyl-4-((S)-2,2,5-trimethyl-piperazin-1-ylmethyl)-1H-pyrazolo[3,4-b]pyridin-6-yl]-phenol], 94%.
In the case of `Cc1n[nH]c2nc(-c3ccc(O)cc3F)cc(CN3C[C@@H](C)NCC3(C)C)c12` [Example 116, 3-Fluoro-4-[3-methyl-4-((R)-2,2,5-trimethyl-piperazin-1-ylmethyl)-1H-pyrazolo[3,4-b]pyridin-6-yl]-phenol], the inhibition at 1.14 µM is 95%.
As for `Cc1n[nH]c2nc(-c3ccc(O)cc3F)cc(CN3CCNC[C@]3(C)c3ccccc3)c12` [Example 117, 3-Fluoro-4-[3-methyl-4-((S)-2-methyl-2-phenyl-piperazin-1-ylmethyl)-1H-pyrazolo[3,4-b]pyridin-6-yl]-phenol], the inhibition at 1.14 µM came out at 99%.
On the same count and under the same terms, in the case of `Cc1n[nH]c2nc(-c3ccc(O)cc3F)cc(CN3CCNC[C@@]3(C)c3ccccc3)c12` [Example 118, 3-Fluoro-4-[3-methyl-4-((R)-2-methyl-2-phenyl-piperazin-1-ylmethyl)-1H-pyrazolo[3,4-b]pyridin-6-yl]-phenol] it was 84%; in that of `Cc1n[nH]c2nc(-c3ccc(O)cc3F)cc(CN3CCNC[C@@H]3c3cccc(F)c3)c12` [Example 119, 3-Fluoro-4-{4-[(S)-2-(3-fluoro-phenyl)-piperazin-1-ylmethyl]-3-methyl-1H-pyrazolo[3,4-b]pyridin-6-yl}-phenol], 86%.
For the molecule `Cc1n[nH]c2nc(-c3ccc(O)cc3F)cc(CN3CCNC[C@H]3c3cccc(F)c3)c12` [Example 120, 3-Fluoro-4-{4-[(R)-2-(3-fluoro-phenyl)-piperazin-1-ylmethyl]-3-methyl-1H-pyrazolo[3,4-b]pyridin-6-yl}-phenol], the inhibition at 1.14 µM came to 102%.
The same measure, in the same setting: the same measure for `CC[C@]1(C)CNC(C)(C)CN1Cc1cc(-c2ccc(O)cc2F)nc2[nH]nc(C)c12` [Example 121, 4-[4-((R)-2-Ethyl-2,5,5-trimethyl-piperazin-1-ylmethyl)-3-methyl-1H-pyrazolo[3,4-b]pyridin-6-yl]-3-fluoro-phenol]: 100%.
On to `CC[C@@]1(C)CNC(C)(C)CN1Cc1cc(-c2ccc(O)cc2F)nc2[nH]nc(C)c12` [Example 122, 4-[4-((S)-2-Ethyl-2,5,5-trimethyl-piperazin-1-ylmethyl)-3-methyl-1H-pyrazolo[3,4-b]pyridin-6-yl]-3-fluoro-phenol], for which the inhibition at 1.14 µM amounted to 100%.

By inhibition is commonly meant the drop in the measured response relative to a control, in per cent. The term % Inhibition denotes the relative decrease from the control value, in per cent.
